# From PubChem BioAssay AID2060619 (Molecular Pharmacology Branch, DTP, NCI, 2025)
# System: 323965-272-R-J2-PDC complex spheroid viability
# Assay: Anticancer human tumor 323965-272-R-J2-PDC patient-derived pancreatic carcinoma cell line growth inhibition [CLK]
# Conditions: for IC50: curve of first compound; for viability, T/C: stronger effect = lower value
# Summary of the method: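 Patient-derived tumor cells grown as complex spheroids with HUVEC endothelial cells and mesenchymal stem cells, treated with drug combinations. Concentrations descend in half-log steps from near clinical Cmax, or from 10 microM if Cmax unknown.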
# 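Note: spheroids exposed to agents for seven days before readout.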
# 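Throughout, for viability, T/C: percent of DMSO vehicle control wells so 100% = untreated growth.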
smiles,measurement,setting,value
COc1ccc([C@@H](O)c2cc(-c3ncnc4cc(N5CCOCC5)ccc34)c(F)cc2Cl)nn1 + CNC(=O)c1ccc(Nc2nc(OC3CCCC3)c3c(-c4ccc5nc(C)oc5c4)c[nH]c3n2)c(OC)c1,IC50,second compound 0.0316 µM,9720 nM
same,IC50,second compound 0.1 µM,> 10000 nM
same,IC50,second compound 0.316 µM,1500 nM
same,IC50,second compound 1 µM,< 31.6 nM
same,IC50,second compound 3.16 µM,< 31.6 nM
same,IC50,second compound 10 µM,< 31.6 nM
same,"viability, T/C","second compound 0.0316 µM, first compound 0.0316 µM",99.2%
same,"viability, T/C","second compound 0.0316 µM, first compound 0.1 µM",127%
same,"viability, T/C","second compound 0.0316 µM, first compound 0.316 µM",110%
same,"viability, T/C","second compound 0.0316 µM, first compound 1 µM",95.3%
same,"viability, T/C","second compound 0.0316 µM, first compound 3.16 µM",79.2%
same,"viability, T/C","second compound 0.0316 µM, first compound 10 µM",48.9%
same,"viability, T/C","second compound 0.1 µM, first compound 0.0316 µM",85.9%
same,"viability, T/C","second compound 0.1 µM, first compound 0.1 µM",79.9%
same,"viability, T/C","second compound 0.1 µM, first compound 0.316 µM",77.7%
same,"viability, T/C","second compound 0.1 µM, first compound 1 µM",70.7%
same,"viability, T/C","second compound 0.1 µM, first compound 3.16 µM",63.8%
same,"viability, T/C","second compound 0.1 µM, first compound 10 µM",49.1%
same,"viability, T/C","second compound 0.316 µM, first compound 0.0316 µM",62%
same,"viability, T/C","second compound 0.316 µM, first compound 0.1 µM",67%
same,"viability, T/C","second compound 0.316 µM, first compound 0.316 µM",49.9%
same,"viability, T/C","second compound 0.316 µM, first compound 1 µM",52.1%
same,"viability, T/C","second compound 0.316 µM, first compound 3.16 µM",49.4%
same,"viability, T/C","second compound 0.316 µM, first compound 10 µM",40.3%
same,"viability, T/C","second compound 1 µM, first compound 0.0316 µM",49.2%
same,"viability, T/C","second compound 1 µM, first compound 0.1 µM",42.1%
same,"viability, T/C","second compound 1 µM, first compound 0.316 µM",42.6%
same,"viability, T/C","second compound 1 µM, first compound 1 µM",43%
same,"viability, T/C","second compound 1 µM, first compound 3.16 µM",40.3%
same,"viability, T/C","second compound 1 µM, first compound 10 µM",28.5%
same,"viability, T/C","second compound 3.16 µM, first compound 0.0316 µM",48.7%
same,"viability, T/C","second compound 3.16 µM, first compound 0.1 µM",41.2%
same,"viability, T/C","second compound 3.16 µM, first compound 0.316 µM",43.7%
same,"viability, T/C","second compound 3.16 µM, first compound 1 µM",33.5%
same,"viability, T/C","second compound 3.16 µM, first compound 3.16 µM",32.1%
same,"viability, T/C","second compound 3.16 µM, first compound 10 µM",26.8%
same,"viability, T/C","second compound 10 µM, first compound 0.0316 µM",41.4%
same,"viability, T/C","second compound 10 µM, first compound 0.1 µM",47.9%
same,"viability, T/C","second compound 10 µM, first compound 0.316 µM",35.7%
same,"viability, T/C","second compound 10 µM, first compound 1 µM",39.8%
same,"viability, T/C","second compound 10 µM, first compound 3.16 µM",31.2%
same,"viability, T/C","second compound 10 µM, first compound 10 µM",26.7%
CNC(=O)c1ccc(Nc2nc(OC3CCCC3)c3c(-c4ccc5nc(C)oc5c4)c[nH]c3n2)c(OC)c1,"viability, T/C",compound 0.1 µM,87.2% [middle of 12 runs]
same,"viability, T/C",compound 0.316 µM,65.7% [middle of 12 runs]
same,"viability, T/C",compound 1 µM,49.8% [middle of 12 runs]
same,"viability, T/C",compound 3.16 µM,44.7% [middle of 12 runs]
same,"viability, T/C",compound 10 µM,47.2% [middle of 12 runs]
